The text below walks through data of paper PMC11562385 (RSC Chemical Biology, 2024).

The term EC50 denotes the concentration at which the effect is half-maximal.

One assay concerns the target T1, PD1:PDL1 interaction (Homo sapiens, UniProt Q15116).
T1 construct: purchased BPS Bioscience 72005
Description: PD1/PDL1 immunoblocking ELISA (BPS Bioscience kit cat # 72005). The format is binding. On the technique in general: ELISA stands for enzyme-linked immunosorbent assay.

Assay [1] concerns the target T2, cell surface PD1 on CD3+/CD8+ cells of h-PBMCs (Homo sapiens, UniProt Q15116).
T2 construct: endogenous in cells; host or cells: healthy human PBMCs (CD45+, CD3+/CD8+ gated)
Nature of the assay: In cellulo PD1 blockade on h-PBMCs by flow cytometry. The format is cell-based. The note with it: h-PBMC cultures, 30 h, n = 3. An excerpt:
Then, an ex vivo immune cell culture system using h-PBMCs and exhausted PBMCs from a melanoma patient (e-PBMCs) was used to determine the efficacy of selected ADAPTin peptides on T-effector cells (Fig. 6).[91,92] T-cell exhaustion typically leads to a reduction in cytokine release, cytotoxic activity, as well as slower T-cell proliferation.

The test system of another assay is e-PBMCs. Nature of the assay: Ex vivo cytokine secretion assay, exhausted PBMCs from a melanoma patient. The format is cell-based, human. The note with it: e-PBMC, 6 h, LEGENDplex. As for the experimental part: Then, an ex vivo immune cell culture system using h-PBMCs and exhausted PBMCs from a melanoma patient (e-PBMCs) was used to determine the efficacy of selected ADAPTin peptides on T-effector cells (Fig. 6).[91,92] T-cell exhaustion typically leads to a reduction in cytokine release, cytotoxic activity, as well as slower T-cell proliferation. […] Cytokines concentrations measured at 72 h post-treatment were in most cases over the detection limit range further indicating the effectiveness of our compounds over time.
Non-covalent ADAPTin2c/2p were used as negative control. (A) Levels of inflammatory cytokines measured by flow-cytometry (FACS) after 6 h incubation with electrophilic ADAPTins. Error bars indicate the mean ± SD, (n = 3). (B) Rescue of exhausted PBMCs from a melanoma patient. Levels of inflammatory cytokines and granule-associated proteins released (6 h) measured by FACS (healthy and untreated exhausted PBMCs: h-/e-PBMCs used as positive and negative controls respectively). Error bars indicate the avg ± SD, (n = 2).
Ex Vivo Cytokine Secretion Assay.
Normal PBMCs (from healthy donor) and exhausted PBMCs isolated from the blood sample of a melanoma patient were activated for 48 h before using anti-CD2/28 monoclonal antibodies with IL-2 (2 ng/mL) as mentioned above. After 48 h, PBMCs were washed and incubated with a series of ADAPTins for 6 h. After treatment, media supernatant was collected for cytokine release measurements using the LEGENDplex™ human CD8/NK (13-plex) panel (BioLegend, cat no. 740267). Briefly, samples were mixed with assay buffer and human (13-plex) mixed-beads and plated on the 96-well filter plate. Samples were incubated for 2 h at room temperature, washed, and resuspended beads with detection antibodies according to manufacturer's protocol. Samples were transferred to a 96-well plate to read on a flow cytometer. The flow cytometer and data acquisition software setting were used according to the manufacturer's instructions. Flow analysis was obtained using a CytoFLEX-S flow cytometer equipped with 3 lasers (488 nm blue, 405 nm violet, and 638 nm from Beckman).
Table S9. Raw data of cytokine secretion assay (n=2).
Cytokine assay IL-2 TNF-α IFN-γ Perforin […]

Peptide text beside a SMILES is read from it.

T1 sequence (Q15116 25-167 limits assumed): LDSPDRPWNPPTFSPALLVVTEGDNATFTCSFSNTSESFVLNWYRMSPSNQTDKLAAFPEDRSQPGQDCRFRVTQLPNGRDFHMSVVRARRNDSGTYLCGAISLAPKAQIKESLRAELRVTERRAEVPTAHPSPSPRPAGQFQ
T2 sequence (Q15116 25-288): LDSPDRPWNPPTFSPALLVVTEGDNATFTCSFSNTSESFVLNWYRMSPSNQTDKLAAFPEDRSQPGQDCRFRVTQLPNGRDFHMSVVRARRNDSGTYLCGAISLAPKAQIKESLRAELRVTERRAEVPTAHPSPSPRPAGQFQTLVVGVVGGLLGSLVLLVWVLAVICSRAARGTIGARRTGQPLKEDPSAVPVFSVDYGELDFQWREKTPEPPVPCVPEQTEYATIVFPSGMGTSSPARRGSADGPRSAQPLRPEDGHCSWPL

On PD1:PDL1 interaction, `CSCC[C@H](NC(=O)CNC(=O)[C@H](CCC(=O)O)NC(=O)[C@H](CCCNC(=N)N)NC(=O)[C@H](C)NC(=O)[C@@H](NC(=O)[C@H](Cc1c[nH]c2ccccc12)NC(=O)[C@@H](N)CCCNC(=N)N)C(C)C)C(=O)N[C@@H](CC(N)=O)C(=O)N[C@H](C(=O)N[C@@H](CC(=O)O)C(=O)NCC(=O)N[C@@H](Cc1ccc(O)cc1)C(=O)N[C@@H](Cc1ccccc1)C(=O)N[C@@H](CC(N)=O)C(=O)N[C@@H](Cc1ccc(O)cc1)C(=O)N[C@@H](Cc1c[nH]c2ccccc12)C(=O)N[C@H](C(=O)N[C@@H](Cc1c[nH]c2ccccc12)C(=O)N[C@@H](CCC(=O)O)C(=O)O)C(C)C)[C@@H](C)O` [2p] (H-RWVAREGMNTDGYFNYWVWE-OH) yielded an EC50 of 160 nM. Moreover, the “PD1 blockade on CD3+/CD8+ T-effector cells” value in assay [1] was < 20%.
“pembrolizumab: FDA-approved anti-PD1 antibody; 'Pem' = its CDR-H3 loop in Table 1 [reference compound]”: in the assay with e-PBMCs (replicate 1), the IFN-γ is 4359.77 pg/mL, the IL-2 was 0.44 pg/mL, the Perforin came to 227.36 pg/mL and the TNF-α came out at 500.12 pg/mL. In the assay on e-PBMCs (replicate 2), the IFN-γ is 7617.66 pg/mL, the IL-2 was 275.42 pg/mL, the Perforin was 438.61 pg/mL and the TNF-α is 1224.22 pg/mL.
